Reference: the NIST ThermoML archive (doi:10.1021/je300045c)
Values joined by “and” are separate entries in the source; they are usually repeats but may differ in a detail not shown here. Equal entries are not always repeated.

Assays:
[1] = 358.15 K, 101 kPa, Liquid
[2] = molar heat capacity at constant pressure; wn = mass fraction of the nth substance listed; conditions: 358.15 K, 101 kPa, Liquid, Small sample (50 mg) DSC
[3] = xn = mol fraction of the nth substance listed; conditions: 358.15 K, 101 kPa, Liquid; for electrical conductivity: Alternating current cell with electrodes; for viscosity: Falling or rolling sphere viscometry; for mass density: Vibrating tube method

CCCCn1cc[n+](C)c1.CS(=O)(=O)[O-] [1-butyl-3-methylimidazolium methanesulfonate]
[1]
Conditions | electrical conductivity [S/m] | mass density [kg/m3]
Alternating current cell with electrodes | 0.805 | –
Vibrating tube method | – | 1134

CCCCn1cc[n+](C)c1.CS(=O)(=O)[O-] [1-butyl-3-methylimidazolium methanesulfonate] + O
Conditions | electrical conductivity [S/m] | mass density [kg/m3] | molar heat capacity at constant pressure | viscosity [mPa·s]
[2], w2 = 0.002 | – | – | 1.768 J/K/mol | –
[2], w2 = 0.014 | – | – | 1.793 J/K/mol | –
[2], w2 = 0.032 | – | – | 1.996 J/K/mol and 2.027 J/K/mol | –
[2], w2 = 0.087 | – | – | 2.267 J/K/mol | –
[2], w2 = 0.097 | – | – | 2.252 J/K/mol | –
[2], w2 = 0.15 | – | – | 2.244 J/K/mol | –
[2], w2 = 0.233 | – | – | 2.448 J/K/mol | –
[2], w2 = 0.429 | – | – | 2.926 J/K/mol | –
[3], x2 = 0 | 0.805 | 1134 | – | –
[3], x2 = 0.012 | 0.821 | 1134 | – | –
[3], x2 = 0.028 | 0.84 | 1134 | – | –
[3], x2 = 0.049 | 0.871 | 1134 | – | –
[3], x2 = 0.074 | 0.907 | 1133 | – | –
[3], x2 = 0.106 | 0.955 | 1133 | – | –
[3], x2 = 0.131 | 1 | 1132 | – | –
[3], x2 = 0.14 | – | 1132 | – | –
[3], x2 = 0.147 | 1.03 | 1132 | – | –
[3], x2 = 0.156 | 1.06 | – | – | –
[3], x2 = 0.159 | – | 1131 | – | –
[3], x2 = 0.185 | 1.12 | – | – | –
[3], x2 = 0.187 | – | 1130 | – | –
[3], x2 = 0.203 | 1.14 | 1130 | – | –
[3], x2 = 0.217 | 1.2 | – | – | –
[3], x2 = 0.224 | – | 1129 | – | –
[3], x2 = 0.252 | 1.29 | – | – | –
[3], x2 = 0.27 | 1.3 | 1129 | – | –
[3], x2 = 0.271 | – | 1128 | – | –
[3], x2 = 0.306 | 1.44 | – | – | –
[3], x2 = 0.329 | – | 1126 | – | –
[3], x2 = 0.358 | 1.61 | – | – | –
[3], x2 = 0.363 | 1.59 | 1126 | – | –
[3], x2 = 0.4 | – | 1125 | – | –
[3], x2 = 0.423 | 1.87 | – | – | –
[3], x2 = 0.457 | 2 | 1124 | – | –
[3], x2 = 0.478 | – | 1122 | – | –
[3], x2 = 0.495 | 2.22 | – | – | –
[3], x2 = 0.535 | 2.46 | – | – | –
[3], x2 = 0.555 | – | 1121 | – | –
[3], x2 = 0.556 | 2.58 | 1120 | – | –
[3], x2 = 0.559 | – | 1120.7 | – | 7.514
[3], x2 = 0.61 | 3.02 | – | – | –
[3], x2 = 0.628 | – | 1118 | – | –
[3], x2 = 0.643 | 3.14 | 1116 | – | –
[3], x2 = 0.654 | – | 1114.4 | – | 5.344
[3], x2 = 0.677 | 3.71 | – | – | –
[3], x2 = 0.692 | – | 1113 | – | –
[3], x2 = 0.702 | – | 1110.3 | – | 4.549
[3], x2 = 0.744 | 4.6 | 1106 | – | –
[3], x2 = 0.749 | – | 1104.1 | – | 3.616
[3], x2 = 0.75 | 4.81 | – | – | –
[3], x2 = 0.771 | – | 1105 | – | –
[3], x2 = 0.801 | – | 1094.9 | – | 2.795
[3], x2 = 0.836 | 6.82 | 1087 | – | –
[3], x2 = 0.842 | 7.27 | – | – | –
[3], x2 = 0.848 | – | 1085 | – | –
[3], x2 = 0.852 | – | 1081.2 | – | 2.048
[3], x2 = 0.878 | 9 | – | – | –
[3], x2 = 0.886 | – | 1072 | – | –
[3], x2 = 0.9 | – | 1062.3 | – | 1.486
[3], x2 = 0.925 | – | 1048.2 | – | 1.149
[3], x2 = 0.95 | – | 1029.7 | – | 0.834
[3], x2 = 0.975 | – | 1003.9 | – | 0.547

O [water] + CCCCn1cc[n+](C)c1.CS(=O)(=O)[O-]
Conditions | molar heat capacity at constant pressure [J/K/mol] | viscosity [mPa·s]
[2], w1 = 1 | 4.12 | –
[3], x1 = 1 | – | 0.334
